Assay results: PMC3628991, “Synthesis and evaluation of cell-permeable biotinylated PU-H71 derivatives as tumor Hsp90 probes” (Beilstein Journal of Organic Chemistry, 2013)
Entries after “also recorded” stand apart in the source; their conditions may differ. Like-named read-outs stand apart in the source and are kept apart here.

Assays:
[1] = target: T1, Grp94 (Homo sapiens, UniProt P14625); conditions: ref Chiosis G, personal communication; cited from earlier work
[2] = system: K562 cells; assay: Growth inhibition assay (Alamar Blue); type: cell-based; conditions: Homo sapiens, K562, 72 h, read-out: IC50 Growth inhibition
Text: (§1) Having shown that each of the prepared biotinylated molecules retained good affinity for Hsp90, we next evaluated these compounds in two functional read-outs that together measure that the probe has entered a live cancer cell and once inside the cell, has bound to a substantial fraction of oncogenic Hsp90 molecules. Specifically, K562 is a human leukemia cell line dependent on Hsp90 for survival. Thus, in such cells, occupancy of Hsp90’s regulatory pocket by small molecules results in inhibition of its cancer-sheltering properties, leading to cell-growth inhibition associated with degradation of Hsp90-chaperoned onco-proteins. These, such as is the case for Raf-1 in K562 cells, become ubiquitinated and targeted for proteasomal degradation leading to a decrease in their steady-state levels (Figure 2a, Raf-1).
Growth inhibition assay. The effect of compounds on cell growth was evaluated with the Alamar Blue assay. In summary, K562 cells were plated at 20,000 cells/well on Costar 96-well plates. Treatment with the probes added at the indicated concentrations in triplicate wells was performed on the subsequent day and lasted for 72 h. The Alamar Blue reagent resazurin (440 μM stock) was added at the end of the treatment to result in a final concentration of 50 μM. Plates were read 6 h later by using the Analyst GT instrument (Fluorescence intensity mode, excitation 530 nm, emission 580 nm, with 560 nm dichroic mirror). Results were analyzed in SoftMax Pro. The percentage of cell growth inhibition was calculated by comparing fluorescence readings obtained from treated versus control cells, accounting for the initial cell population (time zero). The IC50 was calculated as the drug concentration that inhibits cell growth by 50%.

[3] = system: tumor cell Hsp90 complexes (SKBr3 human breast cancer lysate); assay: Hsp90 fluorescence polarization competition assay (GM-cy3B displacement) in SKBr3 cancer-cell lysate; type: binding; conditions: read-out: Affinity for Hsp90 (FP)
Text: The fraction of tracer bound to Hsp90 was correlated to the mP value and plotted against values of competitor concentrations. The inhibitor concentration at which 50% of bound GM was displaced was obtained by fitting the data.

[4] = system: Hsp90 and Hsp90/Raf-1 complexes; assay: Chemical precipitation (affinity purification on streptavidin beads) from live K562 cells; type: cell-based, human; conditions: for Isolation of Hsp90 from live K562 cells (band at 90 kDa, Coomassie): live K562 cells incubated 4 h, then permeabilized, streptavidin beads; for Isolation of Hsp90 in complex with onco-client protein Raf-1: live K562 cells, Coomassie and Raf-1 immunoblot
Procedure: To test for the probes’ ability to isolate Hsp90 in secondary and tertiary complexes, such as those containing onco-client proteins, affinity purifications were also performed from live K562 cancer cells (Figure 2d). In such a case, the biotinylated tool is added to live cells where the compound binds to Hsp90 in an onco-client-bound conformation, locking and preserving the endogenous Hsp90/protein complexes throughout the subsequent experimental steps (i.e., permeabilization). In contrast, when adding a biotinylated tool to cell homogenates, one may encounter two potential limitations. First, due to the dynamic nature of the Hsp90/client protein interactions, the endogenous complexes may be lost during the homogenization process and thus, pull-downs from homogenates may miss important interactors. Second, during homogenization, certain proteins may lose their well-regulated conformation and potentially aggregate. Such misfolded proteins are prone to be captured by chaperones resulting in “false positives” (i.e., nonendogenous Hsp90 client proteins). False positives increase the “background” on the affinity resin, and the higher the background, the poorer the identification of relevant endogenous Hsp90 complexes will be. Therefore, while it is true that following the addition of the biotinylated tool to cells, these are permeabilized or fixed/permeabilized and thus no longer alive, the capture of the oncogenic Hsp90 complexes takes place in the live cell.
Consequently, in live-cell experiments, cells were first incubated with the biotinylated PU-H71 derivatives to trap and maintain the onco-client complexed to Hsp90. Next, cells were ruptured into a physiological buffer containing molybdate. The purpose of this step is to release the proteins from the cell yet maintain the Hsp90/onco-client protein complexes intact. Following capture of these complexes on the streptavidin beads, complexes were applied to a denaturing gel, then probed by both Coomassie stain (Figure 2d, top panel) and immunoblot (Figure 2d, bottom panel Raf-1 blot).
Chemical precipitation from cells. K562 cells were treated with the indicated compounds for 4 h, after which cells were collected and washed three times with PBS. Protein extracts were prepared by sonicating cells in 20 mM HEPES, pH 7.3, 50 mM KCl, 5 mM MgCl2, 20 mM Na2MoO4, 0.01% NP40 lysis buffer. Streptavidin agarose beads (40 μL) (Thermo Scientific) were washed three times with the lysis buffer and added to 500 μg of the total cellular protein extract diluted in lysis buffer to a final volume of 120 μL. Samples were incubated at 4 °C for 1 h, washed five times with the lysis buffer (or high salt buffer containing 1 M NaCl added to the lysis buffer) and applied to SDS-PAGE. Gels were stained with Coomassie blue (BioRad) according to the manufacturer's instructions.

[5] = system: Raf-1 (Hsp90 onco-client) in K562 cells; assay: Raf-1 steady-state levels by Western blot; type: cell-based, human; conditions: for Effect on Raf-1 steady-state levels (Raf-1 degradation): K562 cells, 24 h, probes at 5, 10 and 20 µM; for Cancer-cell permeability / uptake: judged from Raf-1 degradation and growth inhibition in K562 cells
Text: as §1
Western blotting. The K562 cell line was purchased from the American Type Culture Collection (Manassas, VA) and cultured in Roswell Park Memorial Institute (RPMI) supplemented with 10% fetal bovine serum, 1% L-glutamine, 1% penicillin and streptomycin. Cells were plated for 24 h prior to treatment for the indicated times with DMSO (vehicle) or with the indicated compounds. Protein extracts were prepared in 50 mM Tris pH 7.4, 150 mM NaCl and 1% NP-40 lysis buffer. Protein concentrations were measured by using the BCA kit (Pierce) according to the manufacturer's instructions. Protein lysates (50 μg) were resolved by SDS-PAGE, transferred onto nitrocellulose membrane and incubated with an anti-Raf-1 antibody from rabbit (1:500, sc-133, Santa Cruz) or anti-β-actin from mouse (1:2,500, A1978, Sigma-Aldrich). Membranes were then incubated with the corresponding peroxidase-conjugated secondary antibody (1:3,000 dilution) and visualized by the ECL detection reagent (Amersham).

[6] = system: Hsp90; assay: Chemical precipitation (affinity purification on streptavidin beads) from K562 cell lysates; set-up: species or system human; conditions: high-salt wash, Coomassie stain, 10, 25 and 50 µM
Procedure: Having identified which compounds were capable or not of permeating live cancer cells, we next wanted to determine whether the chain length was optimal to maintain concomitant binding to Hsp90 and streptavidin, so as to allow for isolation and identification of Hsp90/onco-client complexes from cancer cells. For this purpose, K562 lysates (Figure 2b and c) were incubated with the biotinylated ligands and the complexes captured on streptavidin beads. To test for the probe’s selectivity, pull-downs were performed with increasing concentrations of biotinylated derivatives (10, 25 and 50 µM; Figure 2c). Additionally, affinity-purified complexes were washed with high-salt buffer to remove Hsp90-bound co-chaperones and client proteins (Figure 2b and c).
(§2) Chemical precipitation from cell lysates. K562 cells were sonicated in 20 mM HEPES, pH 7.3, 50 mM KCl, 5 mM MgCl2, 20 mM Na2MoO4, and 0.01% NP40 lysis buffer containing added protease inhibitors. Affinity beads were prepared by addition of the biotinylated probes to the streptavidin agarose resin (40 μL) (Thermo Scientific), which was first washed three times with the lysis buffer. […] The protein extract (500 μg) was then added to the probe-bound beads, and samples were incubated at 4 °C overnight. Following five washes with lysis buffer, the protein isolates were subjected to SDS-PAGE.

[7] = target: T1, Grp94; assay: Affinity for Hsp90 paralogues: Grp94; type: binding; conditions: paralogue comparison
[8] = system: cytosolic Hsp90 versus Grp94; assay: Paralogue selectivity of affinity purification from K562 lysates (Western blot); set-up: species or system human; conditions: overnight, probes 50 µM
Procedure: as §2

[9] = system: Hsp90; assay: Affinity for Hsp90 paralogues: cytosolic Hsp90; type: binding; conditions: paralogue comparison

T1 sequence (P14625 22-803, species assumed): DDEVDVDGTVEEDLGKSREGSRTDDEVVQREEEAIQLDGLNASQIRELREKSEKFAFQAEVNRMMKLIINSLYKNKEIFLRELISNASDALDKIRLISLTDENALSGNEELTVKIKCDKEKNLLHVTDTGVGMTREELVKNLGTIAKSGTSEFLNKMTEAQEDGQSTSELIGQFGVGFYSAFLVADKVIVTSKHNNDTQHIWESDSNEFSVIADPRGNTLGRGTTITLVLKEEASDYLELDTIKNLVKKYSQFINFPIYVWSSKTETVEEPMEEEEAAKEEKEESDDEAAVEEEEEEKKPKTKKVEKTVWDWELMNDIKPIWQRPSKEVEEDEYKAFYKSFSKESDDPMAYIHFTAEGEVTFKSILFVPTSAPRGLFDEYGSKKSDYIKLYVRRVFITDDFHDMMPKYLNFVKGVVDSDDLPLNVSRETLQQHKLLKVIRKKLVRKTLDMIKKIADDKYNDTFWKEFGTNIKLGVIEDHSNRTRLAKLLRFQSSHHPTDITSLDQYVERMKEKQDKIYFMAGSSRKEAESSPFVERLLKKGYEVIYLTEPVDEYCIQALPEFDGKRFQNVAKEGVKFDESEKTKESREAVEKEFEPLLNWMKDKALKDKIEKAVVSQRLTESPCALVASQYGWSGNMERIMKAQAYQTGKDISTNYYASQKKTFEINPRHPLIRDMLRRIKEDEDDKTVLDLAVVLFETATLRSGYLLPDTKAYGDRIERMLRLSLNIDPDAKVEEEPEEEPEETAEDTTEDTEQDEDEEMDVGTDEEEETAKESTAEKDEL

| Structure (SMILES) | Binding to cytosolic and ER Hsp90 paralogues [1] | IC50 [2] | EC50 [3] | IC50 ([2]; Figure 2a, Alamar Blue) | Isolation of Hsp90 from live K562 cells (band at 90 kDa, Coomassie) [4] | Effect on Raf-1 steady-state levels (Raf-1 degradation) [5] | Isolation of Hsp90 from K562 lysates on streptavidin beads [6] | Affinity for Grp94 [7] | Preference in affinity purification of cytosolic Hsp90 over Grp94 [8] | Isolation of Hsp90 in complex with onco-client protein Raf-1 [4] | Affinity for Hsp90 [9] | Cancer-cell permeability / uptake [5] |
| --- | --- | --- | --- | --- | --- | --- | --- | --- | --- | --- | --- | --- |
| CC(C)NCCCn1c(Sc2cc3c(cc2I)OCO3)nc2c(N)ncnc21 [1a, PU-H71] | binds equally well to the cytosolic and the ER paralogues | 80 nM | 24.5 nM | – | – | – | – | – | – | – | – | – |
| CC(C)N(CCCn1c(Sc2cc3c(cc2I)OCO3)nc2c(N)ncnc21)C(=O)CCCCCNC(=O)CCCC[C@@H]1SC[C@@H]2NC(=O)N[C@@H]21 [2d] | – | – | – | 2190 nM | faint band or no band at 90 kDa | almost complete Raf-1 degradation | – | – | – | – | – | – |
| CC(C)N(CCCn1c(Sc2cc3c(cc2I)OCO3)nc2c(N)ncnc21)C(=O)CCOCCOCCOCCOCCNC(=O)CCCC[C@@H]1SC[C@@H]2NC(=O)N[C@@H]21 [2h] | – | – | – | 7010 nM | – | failed to exhibit such properties; also recorded: failed to substantially degrade Raf-1 | isolated substantial amounts of Hsp90 | 313 nM | substantial preference | Most efficient | 137 nM | – |
| Nc1ncnc2c1nc(Sc1cc3c(cc1I)OCO3)n2CCCNC(=O)CCCCCNC(=O)CCCCCNC(=O)CCCC[C@@H]1SC[C@@H]2NC(=O)N[C@@H]21 [2g] | – | – | – | 1130 nM | – | almost complete Raf-1 degradation | isolated substantial amounts of Hsp90 | 451 nM | substantial preference | Most efficient | 45 nM | substantially taken up by the cancer cell; also recorded: good permeability |
| CC(C)N(CCCn1c(Sc2cc3c(cc2I)OCO3)nc2c(N)ncnc21)C(=O)CCCC[C@@H]1SC[C@@H]2NC(=O)N[C@@H]21 [2b] | – | – | – | 2630 nM | faint band or no band at 90 kDa | almost complete Raf-1 degradation | unable to affinity purify Hsp90 | – | – | – | – | – |
| Nc1ncnc2c1nc(Sc1cc3c(cc1I)OCO3)n2CCCNC(=O)CCCC[C@@H]1SC[C@@H]2NC(=O)N[C@@H]21 [2c] | – | – | – | 250 nM | faint band or no band at 90 kDa | almost complete Raf-1 degradation | unable to affinity purify Hsp90 | – | – | – | – | – |
| Nc1ncnc2c1nc(Sc1cc3c(cc1I)OCO3)n2CCCNC(=O)CCCCCNC(=O)CCCC[C@@H]1SC[C@@H]2NC(=O)N[C@@H]21 [2e] | – | – | – | 1350 nM | faint band or no band at 90 kDa | almost complete Raf-1 degradation | unable to affinity purify Hsp90 | – | – | – | – | – |
| Nc1ncnc2c1nc(Sc1cc3c(cc1I)OCO3)n2CCCNCCOCCOCCOCCNC(=O)CCCC[C@@H]1SC[C@@H]2NC(=O)N[C@@H]21 [2a] | – | – | – | 5000 nM | – | – | modest probe for affinity purifications | – | – | – | – | poor cancer-cell permeability |
| NCCCn1c(Sc2cc3c(cc2I)OCO3)nc2c(N)ncnc21 [1b] | – | – | 26 nM | – | – | – | – | – | – | – | – | – |
| Nc1ncnc2c1nc(Sc1cc3c(cc1I)OCO3)n2CCCNC(=O)CCOCCOCCOCCOCCNC(=O)CCCC[C@@H]1SC[C@@H]2NC(=O)N[C@@H]21 [2i] | – | – | – | 8590 nM | – | failed to exhibit such properties; also recorded: failed to substantially degrade Raf-1 | isolated substantial amounts of Hsp90 | 226 nM | substantial preference | Most efficient | 83 nM | – |
| CC(C)N(CCCn1c(Sc2cc3c(cc2I)OCO3)nc2c(N)ncnc21)C(=O)CCCCCNC(=O)CCCCCNC(=O)CCCC[C@@H]1SC[C@@H]2NC(=O)N[C@@H]21 [2f] | – | – | – | 4960 nM | – | failed to exhibit such properties; also recorded: to some degree | isolated substantial amounts of Hsp90 | 210 nM | substantial preference | Most efficient | 98 nM | – |
